Patent US7671054B1, “Reverse-turn mimetics and method relating thereto” (Choongwae Pharma Corporation, priority 2001, dated 2010)

Test system: TCF4/β-catenin transcription (TOPFlash) in SW480 cells
Experiment: Reporter gene assay (TOPFlash luciferase)
Format: cell-based
Settings: Homo sapiens, SW480, Table 4; Reporter gene assay as described in Example 6; read-out: IC50
Description: SW480 cells were transfected with the usage of Superfect™ transfect reagent (Qiagen, 301307). Cells were trypsinized briefly 1 day before transfection and plated on 6 well plate (5×10^5 cells/well) so that they were 50-80% confluent on the day of transfection.
Four microgram (TOPFlash) and one microgram (pRL-null) of DNAs were diluted in 150 μl of serum-free medium, and 30 μl of Superfect™ transfect reagent was added. The DNA-Superfect mixture was incubated at room temperature for 15 min, and then, 1 ml of 10% FBS DMEM was added to this complex for an additional 3 hours of incubation. While complexes were forming, cells were washed with PBS twice without antibiotics.
The DNA-Superfect™ transfect reagent complexes were applied to the cells before incubating at 37° C. at 5% CO2 for 3 hours. After incubation, recovery medium with 10% FBS was added to bring the final volume to 1.18 ml. After 3 hours incubation, the cells were harvested and reseeded to 96 well plate (3×10^4 cells/well). After overnight incubation at 37° C. at 5% CO2, the cells were treated with Compound A for 24 hours. Finally, the activity was checked by means of luciferase assay (Promega, E1960).

SMILES	IC50 [µM]
CC(C)N(C)c1cccc([C@H](C)N2C[C@H]3N(C(=O)CN(C)N3C(=O)NCc3ccccc3)[C@@H](Cc3ccc(O)cc3)C2=O)c1 [Compound 66]	11.8
CC(C)N(C)c1cccc([C@@H](C)N2C[C@H]3N(C(=O)CN(C)N3C(=O)NCc3ccccc3)[C@@H](Cc3ccc(O)cc3)C2=O)c1 [Compound 67]	6.8
CN1CC(=O)N2[C@@H](Cc3ccc(NC=O)cc3)C(=O)N(Cc3cccc4ccccc34)C[C@@H]2N1C(=O)NCc1ccccc1 [Compound 68]	4.3 ± 0.8
C[C@H]1[C@@H]2N(C(=O)CN(C)N2C(=O)NCc2ccccc2)[C@@H](Cc2ccc(O)cc2)C(=O)N1Cc1ccc(F)cc1F [Compound 69]	1.4 ± 0.7
CN1CC(=O)N2[C@@H](Cc3ccc(O)cc3)C(=O)N(Cc3cccc4[nH]ncc34)C[C@@H]2N1C(=O)NCc1ccccc1 [Compound 70]	8.8 ± 1.9
CN1CC(=O)N2[C@@H](Cc3ccc(O)cc3)C(=O)N(Cc3cccc(N4CCCCC4)c3)C[C@@H]2N1C(=O)NCc1ccccc1 [Compound 71]	6.5 ± 0.7
CN1CC(=O)N2[C@@H](Cc3ccc(O)cc3)C(=O)N(Cc3cccc4cnn(Cc5ccccc5[N+](=O)[O-])c34)C[C@@H]2N1C(=O)NCc1ccccc1 [Compound 74]	2.1 ± 0.2
CN1CC(=O)N2[C@@H](Cc3ccc(O)cc3)C(=O)N(Cc3cccc4nnn(C)c34)C[C@@H]2N1C(=O)NCc1ccccc1 [Compound 75]	50.5 ± 18.4
CN1CC(=O)N2[C@@H](Cc3ccc(O)cc3)C(=O)N(Cc3cccc4c3nnn4C)C[C@@H]2N1C(=O)NCc1ccccc1 [Compound 76]	10.7 ± 2.5
CN1CC(=O)N2[C@@H](Cc3ccc(O)cc3)C(=O)N(Cc3ccc4ncsc4c3)C[C@@H]2N1C(=O)NCc1ccccc1 [Compound 77]	7.2 ± 2.5
C[C@H]1[C@H]2N(C(=O)CN(C)N2C(=O)NCc2ccccc2)[C@@H](Cc2ccc(O)cc2)C(=O)N1Cc1cccc(N(C)C)c1 [Compound 78]	4.3 ± 0.9
CN(Cc1ccccc1)c1cccc(CN2C[C@H]3N(C(=O)CN(C)N3C(=O)NCc3ccccc3)[C@@H](Cc3ccc(O)cc3)C2=O)c1 [Compound 79]	16.5 ± 4.8
C[C@H]1[C@H]2N(C(=O)CN(C)N2C(=O)NCc2ccccc2)[C@@H](Cc2ccc(O)cc2)C(=O)N1Cc1ccc(Cl)c(N(C)C)c1 [Compound 80]	7.9 ± 2
CN1CC(=O)N2[C@@H](Cc3ccc(O)cc3)C(=O)N(Cc3ccc(F)cc3F)[C@@H](COC=O)[C@@H]2N1C(=O)NCc1ccccc1 [Compound 81]	66.1 ± 6.8
CN1CC(=O)N2[C@@H](Cc3ccc(O)cc3)C(=O)N(Cc3ccc(F)cc3F)[C@@H](CO)[C@@H]2N1C(=O)NCc1ccccc1 [Compound 82]	68.1 ± 8.9
C[C@@H]1[C@H]2N(C(=O)CN(C)N2C(=O)NCc2ccccc2)[C@@H](Cc2ccc(O)cc2)C(=O)N1Cc1ccc(Cl)c(N(C)C)c1 [Compound 83]	46.4 ± 3.7
CCOP(=O)(CC(=O)Nc1ccc(C[C@H]2C(=O)N(Cc3cccc4ccccc34)C[C@H]3N2C(=O)CN(C)N3C(=O)NCc2ccccc2)cc1)OCC [Compound 84]	46.7 ± 6.7
CN1CC(=O)N2[C@@H](Cc3ccc(O)cc3)C(=O)N(Cc3ccc4cnn(Cc5ccccc5N)c4c3)C[C@@H]2N1C(=O)NCc1ccccc1 [Compound 86]	9.9 ± 2.6
CN(C)CCn1ncc2cccc(CN3C[C@H]4N(C(=O)CN(C)N4C(=O)NCc4ccccc4)[C@@H](Cc4ccc(O)cc4)C3=O)c21 [Compound 87]	8.1 ± 0.8
CN1CC(=O)N2[C@@H](Cc3ccc(O)cc3)C(=O)N(Cc3cccc4c3cnn4Cc3ccccc3N)C[C@@H]2N1C(=O)NCc1ccccc1 [Compound 88]	2.2 ± 0.2
CN1CC(=O)N2[C@@H](Cc3ccc(O)cc3)C(=O)N(Cc3ccc4cn[nH]c4c3)C[C@@H]2N1C(=O)NCc1ccccc1 [Compound 89]	13.9 ± 0.9
CN(Cc1ccccc1N)c1cccc(CN2C[C@H]3N(C(=O)CN(C)N3C(=O)NCc3ccccc3)[C@@H](Cc3ccc(O)cc3)C2=O)c1 [Compound 90]	3.9
CN1CC(=O)N2[C@@H](Cc3ccc(O)cc3)C(=O)N(Cc3cccc4cn(Cc5cccc(N)c5)nc34)C[C@@H]2N1C(=O)NCc1ccccc1 [Compound 91]	2.9 ± 0.2
CN1CC(=O)N2[C@@H](Cc3ccc(O)cc3)C(=O)N(Cc3cccc4cnn(Cc5cccc(N)c5)c34)C[C@@H]2N1C(=O)NCc1ccccc1 [Compound 92]	3.8 ± 1.2
C#CCn1ncc2ccc(CN3C[C@H]4N(C(=O)CN(C)N4C(=O)NCc4ccccc4)[C@@H](Cc4ccc(O)cc4)C3=O)cc21 [Compound 93]	6.8 ± 1.3
CN1CC(=O)N2[C@@H](Cc3ccc(O)cc3)C(=O)N(Cc3cccc4cnn(CCN5CCOCC5)c34)C[C@@H]2N1C(=O)NCc1ccccc1 [Compound 94]	7.6 ± 0.6
CN1CC(=O)N2[C@@H](Cc3ccc(O)cc3)C(=O)N(Cc3ccc4cccnc4c3)C[C@@H]2N1C(=O)NCc1ccccc1 [Compound 95]	13.3 ± 1.4

SMILES	IC50 [µM]
C#CCn1cc2c(CN3C[C@H]4N(C(=O)CN(C)N4C(=O)NCc4ccccc4)[C@@H](Cc4ccc(O)cc4)C3=O)cccc2n1 [Compound 96]	8.1 ± 0.9
CN1CC(=O)N2[C@@H](Cc3ccc(O)cc3)C(=O)N(Cc3ccccc3N3CCOCC3)C[C@@H]2N1C(=O)NCc1ccccc1 [Compound 97]	12.6 ± 1.2
CN1CC(=O)N2[C@@H](Cc3ccc(O)cc3)C(=O)N(Cc3cccc4c3cnn4CCN3CCOCC3)C[C@@H]2N1C(=O)NCc1ccccc1 [Compound 98]	14.4 ± 2.2
COC(=O)c1ccccc1Cn1ncc2c(CN3C[C@H]4N(C(=O)CN(C)N4C(=O)NCc4ccccc4)[C@@H](Cc4ccc(O)cc4)C3=O)cccc21 [Compound 99]	2.4 ± 0.3
CN1CC(=O)N2[C@@H](Cc3ccc(O)cc3)C(=O)N(Cc3cccc4nn(CCN5CCOCC5)cc34)C[C@@H]2N1C(=O)NCc1ccccc1 [Compound 100]	2.7 ± 0.3
C#CCNC(=O)N1[C@H]2CN(Cc3cccc4ccccc34)C(=O)[C@H](Cc3ccc(O)cc3)N2C(=O)CN1C [Compound 102]	62 ± 17
CN1CC(=O)N2[C@@H](Cc3ccc(O)cc3)C(=O)N(Cc3cccc4cnn(Cc5ccc(N)cc5)c34)C[C@@H]2N1C(=O)NCc1ccccc1 [Compound 104]	4.6 ± 0.4
C#CCn1ncc2cccc(CN3C[C@H]4N(C(=O)CN(C)N4C(=O)NCc4ccccc4)[C@@H](Cc4ccc(O)cc4)C3=O)c21 [Compound 105]	16.6 ± 2.7
C#CCn1cc2cccc(CN3C[C@H]4N(C(=O)CN(C)N4C(=O)NCc4ccccc4)[C@@H](Cc4ccc(O)cc4)C3=O)c2n1 [Compound 106]	2.6 ± 0.2
C#CCNC(=O)c1ccccc1Cn1ncc2c(CN3C[C@H]4N(C(=O)CN(C)N4C(=O)NCc4ccccc4)[C@@H](Cc4ccc(O)cc4)C3=O)cccc21 [Compound 107]	2.7 ± 0.3
C#CCN1CC(=O)N2[C@@H](Cc3ccc(O)cc3)C(=O)N(Cc3cc(F)c(F)cc3N(C)C)C[C@@H]2N1C(=O)NCc1ccccc1 [Compound 108]	1.6 ± 0.1
C#CCN1CC(=O)N2[C@@H](Cc3ccc(O)cc3)C(=O)N(Cc3ccc(Cl)c(N(C)C)c3)C[C@@H]2N1C(=O)NCc1ccccc1 [Compound 110]	3.8 ± 0.6
C#CCN1CC(=O)N2[C@@H](Cc3ccc(O)cc3)C(=O)N(Cc3ccc(F)cc3F)[C@@H](C)[C@@H]2N1C(=O)NCc1ccccc1 [Compound 111]	7.2 ± 0.8
C#CCN1CC(=O)N2[C@@H](Cc3ccc(O)cc3)C(=O)N(Cc3cccc4c3cnn4CCN3CCOCC3)C[C@@H]2N1C(=O)NCc1ccccc1 [Compound 112]	4.1 ± 0.8
CN1CC(=O)N2[C@@H]([C@H](O)c3ccc(O)cc3)C(=O)N(Cc3ccc(F)cc3F)C[C@@H]2N1C(=O)NCc1ccccc1 [Compound 113]	7.3 ± 1.1
C#CCN1CC(=O)N2[C@@H](Cc3ccc(O)cc3)C(=O)N(Cc3cccc4cccnc34)C[C@@H]2N1C(=O)NCc1ccccc1 [Compound 114]	0.4 ± 0.04
CN(C)Cc1cccc(CN2C[C@H]3N(C(=O)CN(C)N3C(=O)NCc3ccccc3)[C@@H](Cc3ccc(O)cc3)C2=O)c1 [Compound 116]	8 ± 0.7
CN1CC(=O)N2[C@@H](Cc3ccc(O)cc3)C(=O)N(Cc3cccc(N4CCOCC4)c3)C[C@@H]2N1C(=O)NCc1ccccc1 [Compound 117]	6.9 ± 0.6
C#CCN1CC(=O)N2[C@@H](Cc3ccc(O)cc3)C(=O)N(Cc3cccc(N4CCOCC4)c3)C[C@@H]2N1C(=O)NCc1ccccc1 [Compound 118]	0.8 ± 0.1
O=C1[C@H](Cc2ccc(O)cc2)N2C(=O)CON(C(=O)NCc3ccccc3)[C@H]2CN1Cc1cccc2cccnc12 [Compound 119]	8.8 ± 1.3
CN(Cc1cccc(CN2C[C@H]3N(C(=O)CN(C)N3C(=O)NCc3ccccc3)[C@@H](Cc3ccc(O)cc3)C2=O)c1)C1CCOCC1 [Compound 120]	34.4 ± 4.9
CCN1CC(=O)N2[C@@H](Cc3ccc(O)cc3)C(=O)N(Cc3cccc4cccnc34)C[C@@H]2N1C(=O)NCc1ccccc1 [Compound 121]	3 ± 0.4
CCCN1CC(=O)N2[C@@H](Cc3ccc(O)cc3)C(=O)N(Cc3cccc4cccnc34)C[C@@H]2N1C(=O)NCc1ccccc1 [Compound 122]	2.1 ± 0.4
CCN1CC(=O)N2[C@@H](Cc3ccc(O)cc3)C(=O)N(Cc3cccc(N4CCOCC4)c3)C[C@@H]2N1C(=O)NCc1ccccc1 [Compound 123]	11.7 ± 1
CCCN1CC(=O)N2[C@@H](Cc3ccc(O)cc3)C(=O)N(Cc3cccc(N4CCOCC4)c3)C[C@@H]2N1C(=O)NCc1ccccc1 [Compound 124]	6.4 ± 0.4
CCN1CC(=O)N2[C@@H](Cc3ccc(O)cc3)C(=O)N(Cc3ccc(Cl)c(N(C)C)c3)C[C@@H]2N1C(=O)NCc1ccccc1 [Compound 125]	9.8 ± 0.7
